Measured values: patent US6432640B1, “P53-induced apoptosis” (priority 1997, dated 2002)

Key:
Format in all cases: cell-based, human
PIGs (p53-induced genes) = experiment: PIG expression in DLD-1 cells (Northern blot); settings: for PIG induction by other inducers of ROS or apoptosis: DLD-1 cells
Protocol: (§1) Cells and RNA. All cell lines used in this study were obtained from the American Type Culture Collection and were cultured in McCoy's medium supplemented with 10% fetal bovine serum (FBS). Cells were infected with recombinant adenoviruses containing either the p53 gene or the β-galactosidase gene (26) at a multiplicity of infection of 10-100. RNA was purified from cells at various times after infection using the MessageMaker Kit (Gibco/BRL). Northern blot analysis was performed as described (26).
To determine the specificity of PIG expression for the p53-dependent apoptotic process, we performed experiments with other inducers of ROS or apoptosis.

DLD-1 cells [1] = experiment: p53-mediated growth arrest dependent on p21 (flow cytometry)
Protocol: (§2) Flow cytometry and other assays. Cells were collected with the aid of trypsin and incubated with CM-H2DCF-DA or NAO (Molecular Probes, Eugene, Oreg.) at concentrations of 10 and 0.4 μM, respectively, for 20 minutes at 37° C. prior to analysis by flow cytometry (14,15). To determine the fraction of apoptotic cells after various treatments, cells were stained with the DNA-binding dye H33258 and evaluated by fluorescence microscopy or flow cytometry as described (1). Superoxide production was assessed with lucigenin (29). In brief, 4-5×10^6 cells were collected with rubber policeman and resuspended in 1 ml of Earle's Balanced Salt Solution (Gibco BRL 14015-069, Life Technologies). Dark-adapted lucigenin (bis-N-methulacridinium nitrate, Sigma M8010) was added to the samples to a final concentration of 20 μM. Light emission was detected using a Berthold LB 9505C luminometer for 60 minutes at 37° C. Glutathione concentrations were measured using an assay kit purchased from Oxford Biomedical Res. Inc. according to the manufacturer's instructions. Caspase activation was assessed by cleavage of PARP (polyADP-ribose polymerase). Lysates from cells infected with Ad-p53 were Western blotted with an anti-PARP antibody, and the cleavage fragments were quantitated by densitometry (4). […]

DLD-1 cells [2] = experiment: Toxicity of inhibitor to cells at the dose used; settings: 100 μM
Protocol: Finally, we treated cells with bongkrekic acid (BA), a specific inhibitor of mitochondrial ATP translocase which can block the mitochondrial permeability transition pore opening thought to be required for ROS-dependent forms of apoptosis (13). […] BA was non-toxic at the dose used (100 μM). While BA inhibited the p53-apoptotic process dependent on ROS production, it had no effect on the p53-mediated growth arrest dependent on p21 as assessed by flow cytometry.

DLD-1 cells [3] = experiment: p53-induced apoptosis in Ad-p53-infected CRC cells (H33258 staining); settings: for block of apoptosis: inhibitor given at (up to) 8 hours following Ad-p53 infection, apoptosis at 24 hours
Protocol: as §1
Flow cytometry and other assays. Cells were collected with the aid of trypsin and incubated with CM-H2DCF-DA or NAO (Molecular Probes, Eugene, Oreg.) at concentrations of 10 and 0.4 μM, respectively, for 20 minutes at 37° C. prior to analysis by flow cytometry (14,15). To determine the fraction of apoptotic cells after various treatments, cells were stained with the DNA-binding dye H33258 and evaluated by fluorescence microscopy or flow cytometry as described (1). Superoxide production was assessed with lucigenin (29). In brief, 4-5×10^6 cells were collected with rubber policeman and resuspended in 1 ml of Earle's Balanced Salt Solution (Gibco BRL 14015-069, Life Technologies). Dark-adapted lucigenin (bis-N-methulacridinium nitrate, Sigma M8010) was added to the samples to a final concentration of 20 μM. Light emission was detected using a Berthold LB 9505C luminometer for 60 minutes at 37° C. Glutathione concentrations were measured using an assay kit purchased from Oxford Biomedical Res. Inc. according to the manufacturer's instructions. Caspase activation was assessed by cleavage of PARP (polyADP-ribose polymerase). Lysates from cells infected with Ad-p53 were Western blotted with an anti-PARP antibody, and the cleavage fragments were quantitated by densitometry (4).
To evaluate the patterns of gene expression following p53 expression, we employed SAGE, a technique which allows the quantitative evaluation of cellular mRNA populations (3). In brief, the method revolves around short sequence “tags” (11 bp), generated from defined positions within each mRNA molecule. Expression patterns are deduced from the abundance of individual tags. […] As previously shown, DLD-1 cells are among the ˜50% of CRC lines that undergo apoptosis in response to p53 (4). RNA was purified from cells 16 hours after infection, at least 8 hours before the onset of morphological signs of apoptosis.
To determine whether these steps were causally associated, we inhibited each step with specific pharmacologic agents and determined the effect of this inhibition on other components of the pathway.

DLD-1 cells [4] = experiment: ROS production in Ad-p53-infected cells (lucigenin chemiluminescence); settings: treated 12 hours after Ad-p53 infection
Protocol: as §2

PIG3 = PIG3 induction by endogenous p53 in six CRC cancer cell lines
Protocol: as §1
As a further test of the p53-dependency of PIG3 induction, we determined whether PIG3 could be induced by endogenous p53 rather than through the exogenous Ad-p53 source. Six CRC cancer cell lines were each treated with adriamycin, a DNA-damaging and apoptotic-inducing agent known to increase endogenous p53 levels.

DLD-1 cells [5] = experiment: Cell death by other inducers of apoptosis
Protocol: as §2

DLD-1 cells [6] = experiment: ROS by CM-DCF-DA and cardiolipin by NAO, flow cytometry
Protocol: FIG. 4A. DLD-1 cells were infected with Ad-p53 or control (Ad-lacZ) viruses and harvested after 27, 35, or 42 hours. Cells were incubated with CM-DCF-DA, a probe of ROS, or NAO, a probe of the mitochondrial membrane cardiolipin, and analyzed by flow cytometry. The mean fluorescence of the control cells is indicated by vertical lines in each box. The pro-oxidant drug menadione was used as a positive control to induce oxidative stress.
Flow cytometry and other assays. […] To determine the fraction of apoptotic cells after various treatments, cells were stained with the DNA-binding dye H33258 and evaluated by fluorescence microscopy or flow cytometry as described (1). Superoxide production was assessed with lucigenin (29). […] Light emission was detected using a Berthold LB 9505C luminometer for 60 minutes at 37° C. Glutathione concentrations were measured using an assay kit purchased from Oxford Biomedical Res. Inc. according to the manufacturer's instructions. Caspase activation was assessed by cleavage of PARP (polyADP-ribose polymerase). Lysates from cells infected with Ad-p53 were Western blotted with an anti-PARP antibody, and the cleavage fragments were quantitated by densitometry (4). […]

[7] = 100 μM, treated 12 hours after Ad-p53 infection

## CO[C@H](C/C=C\C=C\CC/C=C/C[C@H](C)/C=C/C(=C\C(=O)O)CC(=O)O)/C(C)=C\C=C(/C)C(=O)O [BA, bongkrekic acid]
PIGs (p53-induced genes); [7]
  PIG3 expression: inhibit neither
DLD-1 cells [1]
  effect on p53-mediated growth arrest dependent on p21: no effect
DLD-1 cells [2]
  toxicity at the dose used: non-toxic
DLD-1 cells [3]; [7]
  inhibition of subsequent apoptosis: 86-93%
DLD-1 cells [4]; 100 μM
  ROS production: inhibit neither

## c1ccc2c(c1)[I+]c1ccccc1-2 [DPI, diphenyleneiodonium chloride]
PIGs (p53-induced genes)
  PIG3 production: did not inhibit
DLD-1 cells [3]; Homo sapiens, DLD-1, 25 μM, treated 12 hours after Ad-p53 infection, measured 12 hours later, three independent experiments
  inhibition at 25 µM: 73 to 77%
DLD-1 cells [4]; Homo sapiens, DLD-1, 25 μM, measured 12 hours later, three independent experiments
  inhibition at 25 µM: 71 to 85%

## OC[C@H]1O[C@@H](n2cnc3cc(Cl)c(Cl)cc32)[C@H](O)[C@@H]1O [DRB, 5,6-dichlorobenimidizole riboside]
PIGs (p53-induced genes); Ad-p53-infected cells, DRB at 8 hours following infection
  expression of PIGs: inhibit the expression of PIGs
DLD-1 cells [3]
  block of apoptosis: 83+/−3%

## S=C(S)N1CCCC1 [PDTC, pyrrolidine dithiocarbamate]
DLD-1 cells [3]; p53-expressing cells treated with anti-oxidant
  block of apoptosis elicited by p53: able to block the apoptosis

## COc1cccc2c1C(=O)c1c(O)c3c(c(O)c1C2=O)C[C@@](O)(C(=O)CO)C[C@@H]3O[C@H]1C[C@H](N)[C@H](O)[C@H](C)O1 [adriamycin]
PIG3; three CRC lines with mutant p53 genes
  PIG3 induction: not in the three lines with mutant p53 genes
PIG3; three CRC lines with wild-type p53 genes
  PIG3 induction: strongly induced

## C[C@@H]1C[C@@H]([C@H](O)CC2CC(=O)NC(=O)C2)C(=O)[C@@H](C)C1 [cycloheximide]
DLD-1 cells [3]
  block of apoptosis: 79%

## OO [hydrogen peroxide]
PIGs (p53-induced genes)
  PIG induction by other inducers of ROS or apoptosis: only p21 was induced

## COc1ccc2c(c1)c(CC(=O)O)c(C)n2C(=O)c1ccc(Cl)cc1 [indomethacin]
PIGs (p53-induced genes)
  PIG induction by other inducers of ROS or apoptosis: did not result in the expression of any PIG
DLD-1 cells [5]
  cell death: extensive cell death

## CC1=CC(=O)c2ccccc2C1=O [menadione]
PIGs (p53-induced genes)
  PIG induction by other inducers of ROS or apoptosis: none were induced
DLD-1 cells [6]
  ROS (DCF fluorescence): increase in ROS

## ceramide
PIGs (p53-induced genes)
  PIG induction by other inducers of ROS or apoptosis: did not result in the expression of any PIG
DLD-1 cells [5]
  cell death: extensive cell death
